Source: BindingDB's records for doi:10.1021/jm00142a005 (1982)
Where a name gives a salt, the structure may show the parent alone.

These molecules were tested against Thromboxane-A synthase (Oryctolagus cuniculus) (assay: Inhibitory activity against rabbit thromboxane synthetase).

Row | SMILES | IC50 [nM]
1 | CC(CCCCCCn1ccnc1)C(=O)O (stereo not drawn) [8-Imidazol-1-yl-2-methyl-octanoic acid; hydrochloride] | 30
2 | O=C(O)/C=C\CCCCCn1ccnc1 [8-Imidazol-1-yl-oct-2-enoic acid] | 16
3 | CC(C)(CCCCn1ccnc1)CCC(=O)O [8-Imidazol-1-yl-4,4-dimethyl-octanoic acid; hydrochloride] | 71
4 | O=C(O)C(CCCCCCn1ccnc1)c1ccccc1 (stereo not drawn) [8-Imidazol-1-yl-2-phenyl-octanoic acid; hydrochloride] | 38
5 | CC(C)(CCCCCCC(=O)O)n1ccnc1 [8-Imidazol-1-yl-8-methyl-nonanoic acid; hydrochloride] | 90
6 | O=C(O)/C=C/CCCCCn1ccnc1 [8-Imidazol-1-yl-oct-2-enoic acid; hydrochloride] | 70
7 | O=C(O)CCCC/C=C\Cn1ccnc1 [8-Imidazol-1-yl-oct-6-enoic acid; hydrochloride] | 56
8 | O=C(O)C1(CCCCCCn2ccnc2)CCCCC1 [1-(6-Imidazol-1-yl-hexyl)-cyclohexanecarboxylic acid; hydrochloride] | 46
